The EC50 is the concentration that produces a half-maximal response. As a reminder, the IC50 is the midpoint of a concentration-inhibition curve. Usually CC50 stands for the concentration at which the toxic effect on the cells reaches its halfway point.

Read-outs that look alike come from different tables or passages of the source.

The text below walks through data of patent publication US9676771B2, “Compounds for inhibiting drug-resistant strains of HIV-1 integrase” (priority 2013, dated 2017).

In data set [1] the test system is HIV-1 constructs containing mutant IN Y143R. Kind of data set: microbe, parasite or virus in culture. It counts as cell-based. The following applies: Human immunodeficiency virus 1, read-out: EC50 (nM, IN Mutants) Y143R. From the text: (§1) Single-Round HIV-1 Infectivity Assay.
(§2) Human embryonyl kidney cell culture cell line 293 was acquired from the American type Culture Collection (ATCC).
(§3) The virus-containing supernatants were then harvested, clarified by low-speed centrifugation, filtrated, and diluted for preparation in infection assays. […] Activity was normalized to infectivity in the absence of target compounds. KaleidaGraph (Synergy Software, Reading, Pa.) was used to perform regression analysis on the data. EC50 values were determined from the fit model.
pNLNgoMIVR^−ΔEnv.LUC has been described previously (Zhao et al. 2008). The integrase codon reading frame was removed from pNLNgoMIVR^−ΔEnv LUC (between KpnI and SalI sites) and placed between the KpnI and SalI sites of pBluescript II KS+. Using that construct as the wild-type template, we prepared the following HIV-1 Integrase-resistant mutants via the QuikChange II XL (Stratagene, La Jolla, Calif.) site-directed mutagenesis protocol: H51Y, T66I, E92Q, G118R, Y143R, Q148H, Q148K, N155H, R263K, G140S+Q148H, G140A+Q148K, E138K+Q148K, and H51Y+R263K. The following sense with cognate antisense (not shown) oligonucleotides (Integrated DNA Technologies, Coralville, Iowa) were used in the mutagenesis: H51Y, 5′-[…]-3; T66I, 5′-[…]-3′; E92Q, 5′-[…]-3′; G118R, 5′-[…]-3′; E138K, 5′-[…]-3; G140A, 5′-[…]-3; G140S, 5′-[…]-3′; Y143R, 5′-[…]-3′; Q148H, 5′-[…]-3′; Q148K, 5′-[…]-3; N155H, 5′-[…]-3′; R263K 5′-[…]-3′. The double mutation G140S+Q148H was constructed by using the previously generated Q148H mutant and the appropriate oligonucleotide for the 2nd mutation, G140S. The double mutation G140A+Q148K was made by using the Q148K mutant and the appropriate oligonucleotide for the 2nd mutation, G140A. The double mutation E138K+Q148K was made by using the Q148K mutant and the appropriate oligonucleotide for the 2nd mutation, E138K. The double mutation H51Y+R263K was constructed by using the previously generated H51Y mutant and the appropriate oligonucleotides for the 2nd mutation, R263K. The DNA sequence of each construct was verified independently by DNA sequence determination. […] These DNA sequences were additionally checked independently by DNA sequence determination.

The next data set concerns the target HIV-1 integrase (Human immunodeficiency virus type 1 group M subtype B, UniProt P12497). Kind of data set: biochemical. It counts as biochemical. The procedure:
In Vitro Integrase Assay.
Integrase reactions were carried out by adding drugs or an equivalent volume of 100% dimethyl sulfoxide (DMSO; used as the drug solvent) to a mixture of 20 nM DNA and 400 nM integrase in 50 mM morpholinepropanesulfonic acid (pH 7.2), 7.5 mM MgCl2, and 14 mM 2-mercaptoethanol. Reactions were performed at 37° C. for 2 h and quenched by the addition of an equal volume of loading buffer (formamide containing 1% sodium dodecyl sulfate, 0.25% bromophenol blue, and xylene cyanol). […] Dried gels were visualized using a Typhoon 8600 (GE Healthcare, Piscataway, N.J.). Densitometric analyses were performed using ImageQuant 5.1 software from GE Healthcare.

A further data set in a line: in vitro. The following applies: human, 50% reduction in the level of ATP in HOS cells. It counts as cell-based, human. The procedure:
Cellular Cytotoxicity Assay.
On the day of the screen, cells were treated with compounds at the appropriate concentration range chosen and incubated at 37° C. for 48 hrs. Cytotoxicity was measured by monitoring ATP levels via a luciferase reporter assay. Cells were lysed in 50 μL cell lysis buffer (PerkinElmer, Waltham, Mass.) and shaken at 700 rpm at room temperature for 5 mins After the addition of 50 μL of ATPlite buffer (PerkinElmer) directly onto the lysed cells and shaking at 700 rpm at room temperature for 5 mins, ATP levels were monitored by measuring luciferase activity using a microplate reader. Activity was normalized to cytotoxicity in the absence of target compounds. KaleidaGraph (Synergy Software, Reading, Pa.) was used to perform regression analysis on the data. CC50 values were determined from the fit model.

The test system of data set [2] is HIV-1 constructs containing wild-type IN. Kind of data set: microbe, parasite or virus in culture. It counts as cell-based. To be noted: for EC50: Human immunodeficiency virus 1, WT IN, read-out: EC50 (nM, WT).
Text: as §1, §2, §3

The mark [3] stands for this setting: Table 4, 3′-processing, read-out: IC50 (3^+-Processing).
The mark [4] stands for this setting: Table 4, strand transfer, read-out: IC50 (Strand Transfer).
Setting [5] is: read-out: IC50 (3^+-Processing).
Setting [6] is: read-out: IC50 (Strand Transfer).

Consider `O=C(NCc1ccc(F)cc1F)c1c(Nc2ccc(-c3ccccc3)cc2)c2cccnc2n(O)c1=O` [XZ385, 4-([1,1′-biphenyl]-4-ylamino)-N-(2,4-difluorobenzyl)-1-hydroxy-2-oxo-1,2-dihydro-1,8-naphthyridine-3-carboxamide], for which the results for the EC50 in data set [1] (Table 3) and in data set [2] (Table 3) were 361 ± 84 nM and 372 ± 63 nM, respectively. For the same compound, the IC50 was 52000 ± 5000 nM on HIV-1 integrase (setting [3]) and 340 ± 80 nM at HIV-1 integrase (setting [4]). Also, the CC50 in the data set “in vitro” (Table 3) is more than 250000 nM. Further, the “Si (selectivity index)” value in data set [2] (Table 3, ratio of CC50 to EC50) is recorded as more than 673.

Take `O=C(NCc1ccc(F)cc1F)c1c(Nc2ccc3c(c2)Cc2ccccc2-3)c2cccnc2n(O)c1=O` [XZ386, 4-((9H-fluoren-2-yl)amino)-N-(2,4-difluorobenzyl)-1-hydroxy-2-oxo-1,2-dihydro-1,8-naphthyridine-3-carboxamide]: the EC50 was 448 ± 28.1 nM in data set [1] (Table 3) and 171 ± 56.8 nM in data set [2] (Table 3). Besides, the IC50 turned out to be 46000 ± 8000 nM at HIV-1 integrase (setting [3]) and 840 ± 210 nM at HIV-1 integrase (setting [4]). For the same compound, in “in vitro” (Table 3), the CC50 is more than 250000 nM. Besides, the “Si (selectivity index)” value in data set [2] (Table 3, ratio of CC50 to EC50) is >1,462.

As for `N#Cc1ccc(-c2ccc(Nc3c(C(=O)NCc4ccc(F)cc4F)c(=O)n(O)c4ncccc34)cc2)cc1` [XZ388, 4-((4′-cyano-[1,1′-biphenyl]-4-yl)amino)-N-(2,4-difluorobenzyl)-1-hydroxy-2-oxo-1,2-dihydro-1,8-naphthyridine-3-carboxamide], the half-maximal effective concentration (EC50) in data set [1] (Table 3) was determined as 346 ± 38.3 nM; in data set [2] (Table 3), 123 ± 20.7 nM. Besides, the IC50 at HIV-1 integrase (setting [3]) came out at 70000 ± 7000 nM; at HIV-1 integrase (setting [4]), 130 ± 30 nM. In “in vitro” (Table 3), the CC50 is more than 250000 nM. Further, the “Si (selectivity index)” value in data set [2] (Table 3, ratio of CC50 to EC50) is given as >2,033.

On to `COC(=O)[C@H](CO)Nc1c(C(=O)NCc2ccc(F)cc2F)c(=O)n(O)c2ncccc12` [XZ398, (S)-methyl 2-((3-((2,4-difluorobenzyl)carbamoyl)-1-hydroxy-2-oxo-1,2-dihydro-1,8-naphthyridin-4-yl)amino)-3-hydroxypropanoate], for which the IC50 was found to be 5800 ± 500 nM on HIV-1 integrase (setting [5]) and 8.4 ± 3.2 nM on HIV-1 integrase (setting [6]). Further, the CC50 in “in vitro” (Table 3) is more than 250000 nM. Also, the EC50 in data set [2] (Table 3) came to 9.7 ± 3 nM.

Take `COC(=O)[C@@H](CO)Nc1c(C(=O)NCc2ccc(F)cc2F)c(=O)n(O)c2ncccc12` [XZ399, (R)-methyl 2-((3-((2,4-difluorobenzyl)carbamoyl)-1-hydroxy-2-oxo-1,2-dihydro-1,8-naphthyridin-4-yl)amino)-3-hydroxypropanoate]: the IC50 at HIV-1 integrase (setting [5]) amounted to 4400 ± 500 nM; at HIV-1 integrase (setting [6]), 13 nM. Further, in the data set “in vitro” (Table 3), the CC50 was more than 250000 nM. The EC50 in data set [2] (Table 3) was 14.2 ± 3.71 nM.

`NCCNc1c(C(=O)NCc2ccc(F)cc2F)c(=O)n(O)c2ncccc12` [XZ403, 4-((2-aminoethyl)amino)-N-(2,4-difluorobenzyl)-1-hydroxy-2-oxo-1,2-dihydro-1,8-naphthyridine-3-carboxamide]: the results for the IC50 at HIV-1 integrase (setting [5]) and on HIV-1 integrase (setting [6]) were 4500 ± 200 nM and 39 ± 6 nM, respectively. Further, in the data set “in vitro” (Table 3), the CC50 amounted to 9600 ± 3700 nM. In addition, in data set [2] (Table 3), the EC50 turned out to be 34.7 ± 10.5 nM.

Take `CCOC(=O)[C@@H]1CCCN1c1c(C(=O)NCc2ccc(F)cc2F)c(=O)n(O)c2ncccc12` [XZ404, (S)-ethyl 1-(3-((2,4-difluorobenzyl)carbamoyl)-1-hydroxy-2-oxo-1,2-dihydro-1,8-naphthyridin-4-yl)pyrrolidine-2-carboxylate]: the EC50 in data set [1] (Table 3) worked out at 1660 ± 920 nM; in data set [2] (Table 3), 590 ± 71.8 nM. In addition, the IC50 amounted to 86000 ± 6000 nM on HIV-1 integrase (setting [3]) and 310 ± 40 nM at HIV-1 integrase (setting [4]). The CC50 in the data set “in vitro” (Table 3) stood at 18200 ± 7100 nM. Besides, the “Si (selectivity index)” value in data set [2] (Table 3, ratio of CC50 to EC50) turned out to be 31.

With `COc1ccc2c(O)c(C(=O)NCc3ccc(F)cc3F)c(=O)n(O)c2n1` [XZ405, N-(2,4-difluorobenzyl)-1,4-dihydroxy-7-methoxy-2-oxo-1,2-dihydro-1,8-naphthyridine-3-carboxamide], the 50% effective concentration (EC50) came out at 215 ± 31 nM in data set [1] (Table 5) and 186 ± 23.2 nM in data set [2] (Table 5). Besides, the IC50 at HIV-1 integrase (setting [3]) was 32000 ± 4000 nM; on HIV-1 integrase (setting [4]), 33 ± 5 nM. Further, the CC50 in “in vitro” (Table 5) was found to be 12100 ± 4600 nM. Besides, in data set [2] (Table 5, ratio of CC50 to EC50), the SI is recorded as 65.
